Measured values as given in patent US20020048572A1, “Treatment of hypertriglyceridemia and other conditions using LXR modulators” (priority 2000, published 2002).

Columns and labels:
[1] = system: HepG2 cells and mice; test: Gene expression microarrays (GEM) of LXR agonist-treated HepG2 cells and mice; type: in vivo, mouse; conditions: fold increase vs control; mice 5 mg/kg p.o. 7 d
Method: Total RNA extraction and purification for Northern blot analysis was accomplished using the TRI reagent (Molecular Research Center).
To understand the mechanism whereby LXR agonist increased plasma triglycerides, changes in global gene expression in response to LXR agonist treatment were assessed by gene expression micrarrays (GEM) and Northern blot analysis. The GEM experiments were carried out using RNA derived from control and LXR agonist-treated HepG2 cells and mice. […] In addition, a prominent subset of >20 fatty acid metabolism-associated genes was increased by LXR agonist. This subset included fatty acid synthase, carnitine palmitoyltransferase 1, acyl-CoA-binding protein, acyl glycerol-3 phosphate acyltransferase, fatty acid amide hydrolase, acyl carrier protein, fatty acid binding and transport proteins, and colipase, a small protein cofactor required by lipase for the efficient hydrolysis of dietary lipid. Up-regulation of liver and intestinal phosphoethanolamine cytidylyltransferase, a key regulatory enzyme in the CDP-ethanolamine pathway for phosphatidylethanolamine synthesis, was also noted.

[2] = system: LXRα/β−/− mice liver mRNA; test: Northern blot analysis of hepatic mRNA in LXRα/β−/− mice; type: in vivo, mouse
Method: (§1) FIG. 10. […] Pooled plasma (50 μL from each of five mice per group) was fractionated and lipids analyzed as described. Shown are the concentrations for (A) FPLC triglyceride, (B) FPLC phospholipid, and (C) hepatic triglyceride. (D) Northern blot analysis of hepatic SREEP-I, SREBP-2, SCD-1, FAS, and ACC mRNA levels.

[3] = biological target: Gal4-LXRα (Homo sapiens, UniProt Q13133); test: HEK293 Gal4-nuclear receptor chimera luciferase reporter assay; type: cell-based; conditions: T0901317 1 μM, T0314407 5 μM, 20 h
Description: (§2) FIG. 7. (A) Dose responses to LXR ligands in an HEK293 transient transfection assay using a wild-type LXRα expression plasmid and a luciferase reporter gene containing two copies of an LXR response element. DMSO treatments were used to derive the basal level of activation. […] HEK293 cells were cotransfected with a luciferase reporter gene containing four copies of the Gal4 DNA-binding site and the various chimeric Gal4 (DNA-binding domain)-nuclear receptor (ligand-binding domain) proteins shown.
(§3) HEK293 cells were cotransfected with a luciferase reporter gene and the various Gal4-nuclear receptor chimeric constructs shown and a β-galactosidase (β-gal) expression vector for normalization. Transfected cells were treated with the indicated compounds for 20 h before being harvested. Transfection data and luciferase results are normalized to β-gal and expressed as the fold-induction relative to DMSO controls.
(§4) PXR, a nuclear receptor involved in the CYP3A-mediated metabolism of a diverse collection of xenobiotics, is known to be activated by a large number of synthetic compounds (Jones et al., Mol. Endocrinol. 14:27-39 (2000)).

[4] = biological target: Gal4-LXRβ (Homo sapiens, UniProt P55055); test: as above; type: cell-based; conditions: T0901317 1 μM, T0314407 5 μM, 20 h
Description: as §2, §3, §4

[5] = system: LXRα/β−/− mice; test: Plasma and hepatic lipid analysis in LXRα/β−/− mice; type: in vivo, mouse
Method: as §1
C57BL/6 mice (Charles River Laboratories) were between 6 and 10 wk old and weighed ˜20-30 g at the initiation of treatment. Golden Syrian Hamsters (Harlan Sprague-Dawley) were between 12 and 16 wk old (80-150 g). […] LXRα and β−/− mice were reared at the University of Texas Southwestern (UTSW) Medical Center at Dallas in accordance with the Institutional Animal Care and Research Advisory Committee at the UTSW Medical Center.
FPLC of plasma lipoproteins was accomplished using 200 μL aliquots of pooled plasma (from three to five animals) and fractionated on Superose 6 columns (Pharmacia). Cholesterol, triglyceride, and phospholipid concentrations in the fractions were determined enzymatically with reagents from Boehringer, Sigma, and Wako, respectively.

[6] = system: C57BL/6 mice; test: Plasma lipid analysis in C57BL/6 mice; type: in vivo, mouse; conditions: oral treatment
Description: FIG. 8. Plasma lipid levels in animals treated with LXR agonist T0901317. The concentrations of (A) plasma triglycerides and (B) HDL-cholesterol for C57BL/6 mice (n=5, for each treatment group, M, males, F, females). (C) Separation of Golden Syrian hamster plasma by fast protein liquid chromatography (FPLC) in combination with analysis of the triglyceride content across PPLC fractions. Lipid data are reported as the mean ±SD for the number of determinations (animals) described in each experiment. Statistical significance (kybd) was defined as P<0.05 (ANOVA using SAS programming statistical test for controls and LXR agonist-treated animals). C57BL/6 mice (Charles River Laboratories) were between 6 and 10 wk old and weighed ˜20-30 g at the initiation of treatment. Golden Syrian Hamsters (Harlan Sprague-Dawley) were between 12 and 16 wk old (80-150 g). Animals were fed regular chow diets containing ˜4% fat and 0.02% cholesterol (PMI Pi-colab 5053 Chow). LXRα and β−/− mice were reared at the University of Texas Southwestern (UTSW) Medical Center at Dallas in accordance with the Institutional Animal Care and Research Advisory Committee at the UTSW Medical Center. Mice at UTSW were maintained on a 12 h light/12 h dark cycle and fed ad libitum a cereal-based mouse chow diet (No. 7001, Harlan Teklad). Plasma was prepared from euthanized mice using standard centrifugation techniques and analyzed for plasma total cholesterol, HDL cholesterol, and triglyceride concentrations using a Hitachi 704 Clinical Analyzer. FPLC of plasma lipoproteins was accomplished using 200 μL aliquots of pooled plasma (from three to five animals) and fractionated on Superose 6 columns (Pharmacia). Cholesterol, triglyceride, and phospholipid concentrations in the fractions were determined enzymatically with reagents from Boehringer, Sigma, and Wako, respectively. Hepatic lipids were extracted and analyzed for triglyceride essentially as described (Bucolo, G. and David, H., Clin. Chem. 19:476-482 (1973); Yokode et al., Science 250:1273-1275 (1990)).

Sequence of Gal4-LXRα (Q13133 209-447 limits assumed): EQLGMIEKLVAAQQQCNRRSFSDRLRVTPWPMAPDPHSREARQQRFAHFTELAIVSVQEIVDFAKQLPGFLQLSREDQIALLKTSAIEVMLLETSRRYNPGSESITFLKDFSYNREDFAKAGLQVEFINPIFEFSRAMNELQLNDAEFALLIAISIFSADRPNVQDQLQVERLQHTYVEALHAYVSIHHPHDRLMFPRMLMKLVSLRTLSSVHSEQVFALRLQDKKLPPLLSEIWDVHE
Sequence of Gal4-LXRα (P04386 1-147 partner limits assumed): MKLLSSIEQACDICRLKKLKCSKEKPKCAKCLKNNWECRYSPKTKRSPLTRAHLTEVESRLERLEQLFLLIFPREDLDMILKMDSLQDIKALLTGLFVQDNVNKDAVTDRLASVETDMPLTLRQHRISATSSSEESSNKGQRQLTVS
Sequence of Gal4-LXRβ (P55055 222-460 limits assumed): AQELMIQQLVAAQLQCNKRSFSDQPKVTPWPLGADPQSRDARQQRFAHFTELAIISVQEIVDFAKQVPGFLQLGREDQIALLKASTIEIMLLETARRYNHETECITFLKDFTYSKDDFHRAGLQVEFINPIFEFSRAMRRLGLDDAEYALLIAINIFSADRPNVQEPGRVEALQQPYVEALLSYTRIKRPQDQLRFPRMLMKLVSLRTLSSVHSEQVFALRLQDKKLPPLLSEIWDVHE
Sequence of Gal4-LXRβ (P04386 1-147 partner limits assumed): as the sequence (P04386 1-147 partner limits assumed) above

For `O=S(=O)(c1ccccc1)N(CC(F)(F)F)c1ccc(C(O)(C(F)(F)F)C(F)(F)F)cc1` [T0901317, N-(2,2,2-trifluoro-ethyl)-N-[4-(2,2,2-trifluoro-1-hydroxy-1-trifluoromethyl-ethyl)-phenyl]-benzenesulfonamide], the “SREBP-1 expression (GEM)” value [1] was “twofold”, the “fatty acid synthase expression (GEM)” value [1] was “twofold” and the “regulation of the SREBP-1, SCD-1, FAS, or ACC gene” value [2] was “lack of regulation”. The “transcriptional activation of Gal4-LXRα” value [3] was “highest activity”, the “transactivation of chimeric Gal4-LXRβ” value [4] was “transactivation was also noted” and the total plasma triglyceride ([5]; LXRα/β−/− mice vs vehicle-treated LXRα/β−/−) was “scant increases”. The hepatic triglyceride levels ([5]; LXRα/β−/− mice, 7 d) was “no significant elevation”, the “plasma VLDL-triglyceride” value ([5]; LXRα/β−/− mice, 7 d) was “relatively minute increase” and the HDL-phospholipid [6] was “comparable increases”. The “plasma total cholesterol (mainly HDL cholesterol)” value [6] was “comparable increases”, the plasma triglycerides [6] was “significant elevations” and the “plasma very low density lipoproteins (VLDL) triglycerides” value [6] was “Increases”.
